Laboratory results as given in ChEMBL document CHEMBL3885861, “Open TG-GATES”.

Species: Rattus norvegicus
Experiment: Open TG-GATES - Regimen: Single
Assay type: toxicity, organism-based, Sprague-Dawley
Set-up: regimen Single, gender Male, age 6 weeks
Conditions: in vivo, po, 15 mg/kg, route gavage, dose level High; for APTT / Bas / Eos / Fbg / Hb / Ht / Lym / MCH / MCHC / MCV / Mono / Neu / PT / Plat / RBC / Ret / WBC: tissue Blood; for KIDNEY_L / KIDNEY_R / KIDNEY_TOTAL: tissue Kidney; for ALP / ALT / AST / CRE / Cl / DBIL / GLC / IP / K / LDH / Na / PL / RALB / TBIL / TC / TG / TP / gamma-GTP: tissue Plasma

COc1cc2c(c(OC)c1OC)-c1ccc(OC)c(=O)cc1[C@@H](NC(C)=O)CC2 [COLCHICINE]
TERMINAL_BW (3 h): 219.9 g | APTT (3 h): 17.2 s | Bas (3 h): 0% | Eos (3 h): 0.8% | Fbg (3 h): 212.4 mg/dL | Hb (3 h): 13.4 g/dL | Ht (3 h): 40.8% | Lym (3 h): 76.2% | MCH (3 h): 21.9 pg | MCHC (3 h): 33% | MCV (3 h): 66.3 fL | Mono (3 h): 13% | Neu (3 h): 10% | PT (3 h): 12.3 s | Plat (3 h): 111.2 x10_4/uL | RBC (3 h): 614.8 x10_4/ul | Ret (3 h): 9.9% | WBC (3 h): 105.1 x10_2/uL | KIDNEY_L (3 h): 1 g | KIDNEY_R (3 h): 1 g | KIDNEY_TOTAL (3 h): 2 g | ALP (3 h): 859.4 IU/L | ALT (3 h): 59.8 IU/L | AST (3 h): 152.8 IU/L | CRE (3 h): 0.5 mg/dL | Cl (3 h): 105.2 meq/L | DBIL (3 h): 0.03 mg/dL | GLC (3 h): 184.8 mg/dL | IP (3 h): 9.3 mg/dL | K (3 h): 4.6 meq/L | LDH (3 h): 377.8 IU/L | Na (3 h): 138.6 meq/L | PL (3 h): 113.4 mg/dL | RALB (3 h): 3.7 g/dL | TBIL (3 h): 0.4 mg/dL | TC (3 h): 75.2 mg/dL | TG (3 h): 21.4 mg/dL | TP (3 h): 5.6 g/dL | gamma-GTP (3 h): 2.4 IU/L | TERMINAL_BW (6 h): 220.6 g | APTT (6 h): 17.3 s | Bas (6 h): 0% | Eos (6 h): 0.8% | Fbg (6 h): 215 mg/dL | Hb (6 h): 14.5 g/dL | Ht (6 h): 44.5% | Lym (6 h): 69.6% | MCH (6 h): 21.2 pg | MCHC (6 h): 32.7% | MCV (6 h): 65 fL | Mono (6 h): 6.2% | Neu (6 h): 24% | PT (6 h): 14.1 s | Plat (6 h): 109.9 x10_4/uL | RBC (6 h): 684.6 x10_4/ul | Ret (6 h): 8.3% | WBC (6 h): 68.3 x10_2/uL | KIDNEY_L (6 h): 1 g | KIDNEY_R (6 h): 1 g | KIDNEY_TOTAL (6 h): 2 g | ALP (6 h): 1105.6 IU/L | ALT (6 h): 257.8 IU/L | AST (6 h): 651.4 IU/L | CRE (6 h): 0.5 mg/dL | Cl (6 h): 104.2 meq/L | DBIL (6 h): 0.1 mg/dL | GLC (6 h): 174.8 mg/dL | IP (6 h): 9.5 mg/dL | K (6 h): 4.8 meq/L | LDH (6 h): 1373 IU/L | Na (6 h): 139.8 meq/L | PL (6 h): 101.2 mg/dL | RALB (6 h): 3.7 g/dL | TBIL (6 h): 0.5 mg/dL | TC (6 h): 66.8 mg/dL | TG (6 h): 12.2 mg/dL | TP (6 h): 5.5 g/dL | gamma-GTP (6 h): 2 IU/L | TERMINAL_BW (9 h): 217.2 g | APTT (9 h): 17.8 s | Bas (9 h): 0% | Eos (9 h): 0.6% | Fbg (9 h): 203.8 mg/dL | Hb (9 h): 14.9 g/dL | Ht (9 h): 45.2% | Lym (9 h): 50.6% | MCH (9 h): 21.1 pg | MCHC (9 h): 32.8% | MCV (9 h): 64.3 fL | Mono (9 h): 12.2% | Neu (9 h): 36.8% | PT (9 h): 14.8 s | Plat (9 h): 99 x10_4/uL | RBC (9 h): 704.2 x10_4/ul | Ret (9 h): 7.7% | WBC (9 h): 52.6 x10_2/uL | KIDNEY_L (9 h): 1 g | KIDNEY_R (9 h): 1 g | KIDNEY_TOTAL (9 h): 1.9 g | ALP (9 h): 1469.6 IU/L | ALT (9 h): 302.8 IU/L | AST (9 h): 623.8 IU/L | CRE (9 h): 0.5 mg/dL | Cl (9 h): 101.8 meq/L | DBIL (9 h): 0.3 mg/dL | GLC (9 h): 171 mg/dL | IP (9 h): 8.1 mg/dL | K (9 h): 4.7 meq/L | LDH (9 h): 1091.2 IU/L | Na (9 h): 137 meq/L | PL (9 h): 126 mg/dL | RALB (9 h): 3.8 g/dL | TBIL (9 h): 0.6 mg/dL | TC (9 h): 86.2 mg/dL | TG (9 h): 9.4 mg/dL | TP (9 h): 5.5 g/dL | gamma-GTP (9 h): 2 IU/L | TERMINAL_BW (24 h): 208.7 g | APTT (24 h): 18 s | Bas (24 h): 0% | Eos (24 h): 0.6% | Fbg (24 h): 171 mg/dL | Hb (24 h): 15.6 g/dL | Ht (24 h): 47.7% | Lym (24 h): 73.4% | MCH (24 h): 20.5 pg | MCHC (24 h): 32.9% | MCV (24 h): 62.4 fL | Mono (24 h): 9.8% | Neu (24 h): 16.2% | PT (24 h): 12.5 s | Plat (24 h): 121.1 x10_4/uL | RBC (24 h): 763.8 x10_4/ul | Ret (24 h): 6.3% | WBC (24 h): 78.2 x10_2/uL | KIDNEY_L (24 h): 1 g | KIDNEY_R (24 h): 1 g | KIDNEY_TOTAL (24 h): 2 g | ALP (24 h): 1599.2 IU/L | ALT (24 h): 160.4 IU/L | AST (24 h): 350.8 IU/L | CRE (24 h): 0.6 mg/dL | Cl (24 h): 104 meq/L | DBIL (24 h): 0.1 mg/dL | GLC (24 h): 176 mg/dL | IP (24 h): 7.8 mg/dL | K (24 h): 5.2 meq/L | LDH (24 h): 172.4 IU/L | Na (24 h): 136.8 meq/L | PL (24 h): 116.4 mg/dL | RALB (24 h): 3.3 g/dL | TBIL (24 h): 0.5 mg/dL | TC (24 h): 60.8 mg/dL | TG (24 h): 16.8 mg/dL | TP (24 h): 5.1 g/dL | gamma-GTP (24 h): 1.4 IU/L
